The test system of this test is Ascaris suum antigen-induced wheal. Put plainly: Ascaris suum antigen-induced intradermal wheal formation in nonhuman primates. Type of test: in vivo, Macaca fascicularis. As to conditions: for Mean wheal area: mean of 12 animals, 15 minutes, A suum alone 119.626; for Individual calculated wheal area: single animals, intradermal, 15 minutes after injection. An excerpt:
The species used for this study were male, nonhuman primates, Macaca fascicularis 5 to 10 years of age. Each animal was identified by a unique number tattoo located on its chest. The group size was 12. Animals were supplied by Charles River and housed under conditions outlined in the NIH Guide for Care and Use of Laboratory Animals in compliance with the USDA Laboratory Animal Welfare Act, in a fully accredited AAALAC facility. Purina (product 5038) primate chow was fed twice daily, supplemented with fruit, vegetables and treats. Water was available ad libitum.
Compound A formulated in a solution containing 0.22 mg/ml A sum (Ascaris sum) in phosphate buffered saline was dosed at 0.004, 0.0004, 0.00004, and 0.000004 mg per injection site at a volume of 40 μl.
Diphenhydramine hydrochloride was formulated in a solution containing 0.22 mg/ml A suum in phosphate buffered saline. Diphenhydramine hydrochloride was dosed at 0.4 mg per injection site at a volume of 40 μl.
Ascaris suum extract (part number XPB33X1A5, lot 30575) was supplied by Greer Laboratories. The extract was reconstituted with distilled water to a final concentration of 10 mg/ml of stock solution.
Animals were anesthetized by an intramuscular (IM) injection of 5 to 10 mg/kg ketamine mixed with 0.5 to 0.75 mg/kg medetomidine. The animal's chest and abdomen were shaved and wiped clean with alcohol. The following injections (40 μl each) were given intradermally: • PBS (phosphate buffered saline) • Ascaris 8.8×10^−3 mg/ml • Ascaris 8.8×10^−3 mg/ml+0.4 mg Diphenhydramine hydrochloride • Ascaris 8.8×10^−3 mg/ml+0.004 mg SAR160719 • Ascaris 8.8×10^−3 mg/ml+0.0004 mg SAR160719 • Ascaris 8.8×10^−3 mg/ml+0.00004 mg SAR160719 • Ascaris 8.8×10^−3 mg/ml+0.000004 mg SAR160719
The reactions in the form of a wheal were measured 15 minutes after injection using vernier calipers. The wheal was measured along two diameters (D1 and D2) perpendicular to one another. The area of the wheal was calculated using the formula: […]
Mixed model with repeated measures was used to analyze the data, with wheal size for different treatment groups as the repeated measures, treatment as fixed effects, and animal as random effect. The correlation structure was selected to be compound symmetry. Robust covariance estimate was used to obtain the results.

Where “and” joins values, the source holds several entries; their conditions need not be identical. Identical values can stand only once. Counter-ions that a name gives are not always drawn.

Consider two compounds from patent publication US20120309790A1, “TREATMENT OF DERM[…] CONDITIONS” (SANOFI, priority 2010, published 2012).

For `CN(C)CCOC(c1ccccc1)c1ccccc1` [Diphenhydramine hydrochloride, reference compound], the Mean wheal area (A suum + 0.4 mg per site, hydrochloride) was 84.196±7.364 mm^2 and 84.196 mm^2. Besides, the “Individual calculated wheal area” value (A suum 8.8 × 10^−3 mg + 0.4 mg per injection site, hydrochloride) was 76.211 mm^2 and 116.914 mm^2 and 147.430 mm^2 and 62.219 mm^2 and 73.148 mm^2 and 82.527 mm^2 and 58.773 mm^2 and 67.209 mm^2 and 78.550 mm^2 and 65.764 mm^2 and 87.428 mm^2 and 94.183 mm^2.
For `COCCn1cc(C(=O)N2CCC(c3cc(CN)ccc3F)CC2)c2c(OC(F)(F)F)ccc(F)c21` [Compound A, [4-(5-Aminomethyl-2-fluorophenyl)piperidine-1-yl][7-fluoro-1-(2-methoxyethyl)-4-trifluoromethoxy-1H-indol-3-yl]methanone], the Antigen-induced wheal formation result (co-injected with A suum intradermally, measured 15 minutes after injection) is “reduced antigen-induced wheal formation”. The Mean wheal area was 105.510 mm^2 (A suum + 0.000004 mg per site); 101.157 mm^2 (A suum + 0.00004 mg per site); 97.680±8.012 mm^2 and 97.680 mm^2 (A suum + 0.0004 mg per site); 102.390±9.645 mm^2 and 102.390 mm^2 (A suum + 0.004 mg per site). The “Individual calculated wheal area” value by setting is: (A suum 8.8 × 10^−3 mg + 0.000004 mg per injection site) 110.302 mm^2 and 84.145 mm^2 and 132.750 mm^2 and 121.754 mm^2 and 86.601 mm^2 and 104.788 mm^2 and 134.800 mm^2 and 133.773 mm^2 and 85.779 mm^2 and 66.485 mm^2 and 115.005 mm^2 and 89.932 mm^2; (A suum 8.8 × 10^−3 mg + 0.00004 mg per injection site) 67.209 mm^2 and 86.601 mm^2 and 168.586 mm^2 and 90.774 mm^2 (2×) and 106.610 mm^2 (2×) and 81.723 mm^2 and 107.527 mm^2 and 93.325 mm^2 and 79.337 mm^2 and 134.800 mm^2; (A suum 8.8 × 10^−3 mg + 0.0004 mg per injection site) 112.171 mm^2 and 110.302 mm^2 and 158.388 mm^2 and 101.190 mm^2 and 103.882 mm^2 and 107.527 mm^2 and 87.428 mm^2 and 90.774 mm^2 and 100.300 mm^2 and 48.404 mm^2 and 56.752 mm^2 and 95.046 mm^2; (A suum 8.8 × 10^−3 mg + 0.004 mg per injection site) 67.938 mm^2 and 115.005 mm^2 and 159.506 mm^2 and 91.621 mm^2 and 84.960 mm^2 (2×) and 131.730 mm^2 and 88.259 mm^2 and 164.014 mm^2 and 99.415 mm^2 and 65.047 mm^2 and 76.211 mm^2.
